In assay [1] the target is T1, 20S proteasome chymotrypsin-like (CT-L) activity (Oryctolagus cuniculus, UniProt G1T4Q9).
T1 sequence (G1T4Q9 1-263): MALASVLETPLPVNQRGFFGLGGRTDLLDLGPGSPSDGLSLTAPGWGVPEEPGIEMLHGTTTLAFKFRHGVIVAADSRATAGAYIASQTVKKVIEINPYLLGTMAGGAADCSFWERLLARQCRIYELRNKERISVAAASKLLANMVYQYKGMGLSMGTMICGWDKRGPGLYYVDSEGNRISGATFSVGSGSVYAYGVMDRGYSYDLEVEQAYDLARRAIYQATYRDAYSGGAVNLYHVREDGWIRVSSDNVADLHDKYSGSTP
The assay can be described thus: In vitro proteasome activity assay, CT-L (Suc-LLVY-AMC). The class given is biochemical, rabbit. The note with it: for IC50: purified 20S proteasome. How it is done: (§1) The assays were performed in vitro using purified 20S proteasome/inhibitor mixtures, with the activity of each subunit of the proteasome assessed upon incubation with its respective target peptide.
(§2) Purified rabbit 20S proteasome and fluorogenic CT-L substrate (Suc-LLVY-AMC) were purchased from Boston Biochem (Cambridge, Mass., USA). The T-L and CP-L fluorogenic substrates (Ac-RLR-AMC and Z-nLPnLD-AMC) were purchased from Enzo Life Sciences (Farmingdale, N.Y., USA). The 20S proteasome was diluted to 0.2 μg/μL in 20S proteasome buffer (50 mM HEPES pH 7.6, 150 mM NaCl and 1 mM DDT) and stored at −80° C. Purified 20S proteasome (8 ng) was pre-incubated with the indicated concentrations of inhibitors for 15 minutes and subsequently added to the AMC-labeled substrate peptide (50 μM) in assay buffer (25 mM HEPES, pH 7.5, 0.5 mM EDTA, 0.05% NP-40, and 0.001% SDS (w/v)) at 37° C. for 2 hours.

Assay [2] has as its target T2, 20S proteasome T-L activity (Oryctolagus cuniculus, UniProt G1SWK8).
T2 construct: purchased Boston Biochem
T2 sequence (G1SWK8 1-271): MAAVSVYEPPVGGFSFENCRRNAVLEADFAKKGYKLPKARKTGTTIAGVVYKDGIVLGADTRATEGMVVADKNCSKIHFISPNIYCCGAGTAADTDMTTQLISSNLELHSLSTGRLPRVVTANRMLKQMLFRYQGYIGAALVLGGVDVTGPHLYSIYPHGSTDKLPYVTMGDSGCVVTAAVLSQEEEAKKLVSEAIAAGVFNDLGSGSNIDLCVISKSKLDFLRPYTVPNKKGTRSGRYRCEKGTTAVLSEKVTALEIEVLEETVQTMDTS
The assay can be described thus: In vitro proteasome activity assay, T-L (Ac-RLR-AMC). The class given is biochemical, rabbit. The settings on record: purified 20S proteasome; highest concentration tested 25,000 nM. How it is done: as §1, §2

Assay [3] addresses T3, 20S proteasome CP-L activity (Oryctolagus cuniculus, UniProt A0A5F9DQW2).
T3 construct: Purified rabbit 20S proteasome
The assay can be described thus: In vitro proteasome activity assay, CP-L (Z-nLPnLD-AMC). The settings on record: purified 20S proteasome; highest concentration tested 25,000 nM. Format: biochemical, rabbit. How it is done: We initially determined the ability of the novel tripeptide MG132 analogues 1-6 and the macrocycles 3a and 4a to inhibit the three separate protease activities of the 20S proteasome (CT-L, -T-L and CP-L). The assays were performed in vitro using purified 20S proteasome/inhibitor mixtures, with the activity of each subunit of the proteasome assessed upon incubation with its respective target peptide. […] In addition, there is no apparent clear-cut preference for the length of tether (compare compounds 1 to 4), while the introduction of an aryl group at P3 (as in 6) is well tolerated.
as §2, with “hours. Fluorescent substrate cleavage by the 20S proteasome was linear during this incubation timeframe (Supplementary Figure S4. Hydrolysed 7-amino-4-methylcoumarin (AMC) was subsequently detected with the FLUOstar OPTIMA microplatefluorometer at excitation/emission of 390/460 nm. The activity was estimated in relative fluorescence units and half of the maximal inhibitory activity of the proteasome is represented by IC50 values. A minimum of three biological replicates were performed for each data point.” for “hours.”

Assay [4] has as its system VH-64 Ewing's sarcoma cells. The experiment in a line: Cell viability assay (7AAD, 48 hours), VH-64. Format: cell-based. The settings on record: 48 hours exposure; read-out: Cancer cell lines IC50 (μM) VH-64. How it is done:
(§3) Cell viability assays were performed as previously described. Briefly, cells were seeded in 96 well microtiterplates at a density of 3×10^4 cells per well in the presence of the indicated chemical. Cells were harvested 48 hours post-treatment, centrifuged at 1,300×g, washed in phosphate-buffered saline (PBS) and stained with 7AAD solution (2 μg/mL) (7-amino-actinomycin-D, Invitrogen, Carlsbad, Calif.) for 10 mins at room temperature. Viable cells were determined with the use of a FACS Calibur flow cytometer (Becton Dickinson Immunocytometry Systems), and analyzed with the use of FLOWJO (Tree Star, Inc) and GraphPad Prism (GraphPad Software Inc).
(§4) WE-68 and VH-64 Ewing's sarcoma cells were kindly supplied by F. van Valen (Department of Orthopaedic Surgery, Westfalische-Wilhelms-University, Germany).TC-252 and STA-ET-1 Ewing's sarcoma cells were kindly provided by G. Hamilton (Department of Surgery, University of Vienna, Austria) or P. Ambros (Children's Cancer Research Institute, St Anna Children's Hospital, Vienna, Austria). Primary human embryonic fibroblasts or primary human osteoblasts were collected from the Women's and Children's Hospital (North Adelaide, South Australia, Australia) or Royal Adelaide Hospital with patient consent. Mouse Embryonic Fibroblasts (MEFs) and its p53-null derivative were kindly supplied by Guillermina Lozano (Department of Genetics, Anderson Cancer Centre, University of Texas, Houston, Tex., USA). WE-68 cell lines were grown in RPMI-1640 media, whilst human embryonic fibroblasts and MEFs were grown in Dulbecco's Modified Eagle's Medium (DMEM). Media was supplemented with 10% FCS, 1% PSG and 10 mM HEPES. All cells were maintained at 37° C. in a humidified atmosphere of 5% CO2.

Assay [5] deals with panel of sarcoma cell lines (WE-68, VH-64, STA-ET-1, TC-252). The experiment in a line: Cell viability assay, panel of four sarcoma cell lines (average). The settings on record: for IC50: average of four sarcoma cell lines, read-out: Average IC50 for cancer cell lines; for Therapeutic window: fold change in potency (IC50) against cancer cell line versus normal cell line. The class given is cell-based. How it is done: as §3, §4

In assay [6] the test system is normal cell lines (fibroblasts, osteoblasts). The assay can be described thus: Cell viability assay, normal cell lines (average). Format: cell-based. The settings on record: Homo sapiens; average of fibroblasts and osteoblasts. How it is done: as §3, §4

Molecules are shown by their SMILES. Where a SMILES comes first, the peptide text is derived from it. The star is where a group is joined. Cbz = O=C(OCc1ccccc1)*

By IC50 is commonly meant the midpoint of a concentration-inhibition curve.

T3 sequence (A0A5F9DQW2 1-212): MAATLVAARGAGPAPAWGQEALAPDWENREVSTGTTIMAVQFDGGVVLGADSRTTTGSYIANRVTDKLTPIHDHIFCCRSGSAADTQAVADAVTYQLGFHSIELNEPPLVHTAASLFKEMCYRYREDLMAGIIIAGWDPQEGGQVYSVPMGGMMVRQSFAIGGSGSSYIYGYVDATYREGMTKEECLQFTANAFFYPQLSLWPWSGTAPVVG

Regarding `C#CCOc1ccc(C[C@@H](C=O)NC(=O)[C@H](CC(C)C)NC(=O)[C@H](CCN=[N+]=[N-])NC(=O)OCc2ccccc2)cc1` [Compound 2], the IC50 is 355 nM in assay [1]; more than 25000 nM in assay [2]; more than 25000 nM in assay [3]; 4.9 µM in assay [4]; 4.3 µM in assay [5]; 21.5 µM in assay [6]. For the same molecule, the Therapeutic window result in assay [5] was “×5.0”.

As to `C#CCOc1ccc(C[C@@H](C=O)NC(=O)[C@H](CC(C)C)NC(=O)[C@H](CCCN=[N+]=[N-])NC(=O)OCc2ccccc2)cc1` [Compound 3], the IC50 in assay [1] is 54 nM; in assay [2], more than 25000 nM; in assay [3], more than 25000 nM; in assay [4] it was 2.1 µM; in assay [5] it was 1.6 µM; in assay [6], 13.8 µM. Also, in assay [5], the Therapeutic window entry is listed as “×8.7”.

As for `C#CCOc1ccc(C[C@@H](C=O)NC(=O)[C@H](CC(C)C)NC(=O)[C@H](CCCCN=[N+]=[N-])NC(=O)OCc2ccccc2)cc1` [Compound 4], the IC50 is 150 nM in assay [1]; more than 25000 nM in assay [2]; more than 25000 nM in assay [3]; 1.9 µM in assay [4]; 4.2 µM in assay [5]; 25 µM in assay [6]. The Therapeutic window result in assay [5] is “×5.9”.

`C#CCOc1ccc(C[C@@H](C=O)NC(=O)[C@@H](NC(=O)[C@H](CCCCN=[N+]=[N-])NC(=O)OCc2ccccc2)[C@@H](C)CC)cc1` [Compound 5]: the “increase in potency against CT-L relative to compound 4 (Leu at P2)” value in assay [1] amounted to 7.5 fold. Further, the IC50 is 21 nM in assay [1]; more than 25000 nM in assay [2]; more than 25000 nM in assay [3]; 1.1 µM in assay [4]; 0.88 µM in assay [5]; 12.4 µM in assay [6]. Further, the Therapeutic window entry in assay [5] is reported as “×14.1”.

For the molecule `C#CCOc1ccc(C[C@@H](C=O)NC(=O)[C@H](CC(C)C)NC(=O)[C@H](Cc2ccc(N=[N+]=[N-])cc2)NC(=O)OCc2ccccc2)cc1` [Compound 6], the IC50 in assay [1] was 23 nM; in assay [2], more than 25000 nM; in assay [3], more than 25000 nM; in assay [4], 1.9 µM; in assay [5] it was 1.5 µM; in assay [6], 28.5 µM. Moreover, the “more potency against cancer cells over normal cells” value in assay [5] was 19 fold. For the same molecule, the Therapeutic window entry in assay [5] is “×19.0”.

For the molecule `CC(C)C[C@@H](C=O)NC(=O)[C@H](CC(C)C)NC(=O)[C@H](CC(C)C)NC(=O)OCc1ccccc1` [MG132, reference compound] (Cbz-Leu-Leu-Leu-aldehyde), the IC50 in assay [1] is 1.2 nM; in assay [2] it was 2000 nM; in assay [3], 545 nM; in assay [4], 0.68 µM; in assay [5], 0.61 µM; in assay [6], 2.8 µM. Besides, in assay [5], the Therapeutic window entry is on record as “×4.5”.

These data come from patent publication US20150299250A1, “MACROCYCLIC COMPOUNDS AND USES THEREOF” (ADELAIDE RESEARCH & INNOVATION PTY LTD, priority 2012, published 2015).
